Test results published in publication PMC3040889, “Synthesis and Biological Evaluation of Delavayin-C” (Indian Journal of Pharmaceutical Sciences, 2008).
Residues, ends and D or L forms follow the SMILES beside them.

What was measured:
Type in all cases: cell-based
Psuedomonas aeruginosa [1] = assay: microbe, parasite or virus in culture; conditions: disc diffusion, 50 μg/ml
Procedure: (§1) The synthesized cyclic heptapeptide was screened in vitro for its antibacterial and antifungal activity by using disc diffusion method and tube dilution technique. The antibacterial activity was determined against four bacterial species (B. subtilis, S. aureus, E. coli and P. aeruginosa) and antifungal activity against Candida albican. In the disc diffusion method, the activity studies were carried out according to modified Kirby-Bauer method. Benzyl penicillin and fluconazole were used as standards against bacterial and fungal strains, respectively at a concentration of 50 μg/ml. Nutrient broth and Sabourds agar were used as a medium and dimethylformamide (DMF) was used as a solvent control for carrying out the activity. After preparation of the disc, allowed to stand for 24 h at 37°. The zone of inhibition, observed around the disks after incubation, was measured.

Bacillus subtilis [2] = assay: microbe, parasite or virus in culture; conditions: disc diffusion, 50 μg/ml
Procedure: as §1

Staphylococcus aureus [3] = assay: microbe, parasite or virus in culture; conditions: disc diffusion, 50 μg/ml
Procedure: as §1

Candida albicans [4] = assay: microbe, parasite or virus in culture; conditions: disc diffusion, 50 μg/ml
Procedure: as §1

Escherichia coli [5] = assay: microbe, parasite or virus in culture; conditions: disc diffusion, 50 μg/ml
Procedure: as §1

Psuedomonas aeruginosa [6] = assay: tube dilution technique for minimum inhibitory concentration; set-up: key: (+) indicates presence of growth (no activity); –: absence of growth; conditions: P. aeruginosa, nutrient broth, 37° for 24 h, turbidity
Procedure: (§2) Compound inhibiting growth of microorganisms was further tested for minimum inhibitory concentration (MIC). A solution of the compound was prepared in DMF and a series of doubling dilutions prepared with sterile pipettes. To each of a series of sterile stoppered test tubes, a standard volume of nutrient broth medium was added. A control tube containing no antimicrobial agent was included. The inoculum consisting of an overnight broth culture of microorganisms was added to separate tubes. The tubes were incubated at 37° for 24 h and examined for turbidity. The tube with highest dilution showing no turbidity was the one containing compound with MIC.

Bacillus subtilis [7] = assay: as above; set-up: key: (+) indicates presence of growth (no activity); –: absence of growth; conditions: B. subtilis, nutrient broth, 37° for 24 h, turbidity
Procedure: as §2

Staphylococcus aureus [8] = assay: as above; set-up: key: (+) indicates presence of growth (no activity); –: absence of growth; conditions: S. auereus, nutrient broth, 37° for 24 h, turbidity
Procedure: as §2

Candida albicans [9] = assay: as above; set-up: key: (+) indicates presence of growth (no activity); –: absence of growth; conditions: C. albicans, broth medium, 37° for 24 h, turbidity
Procedure: as §2

Escherichia coli [10] = assay: as above; set-up: key: (+) indicates presence of growth (no activity); –: absence of growth; conditions: E. coli, nutrient broth, 37° for 24 h, turbidity
Procedure: as §2

[11] = 24 h at 37°, DMF solvent control

**Q.** How did the zone of inhibition at 50 µg/mL (Psuedomonas aeruginosa [1]; Pseudomonas aeruginosa, 24 h at 37°, DMF solvent control, read-out: Diameter of zone of inhibition, P. aeruginosa) turn out when CC1(C)S[C@@H]2[C@H](NC(=O)Cc3ccccc3)C(=O)N2[C@H]1C(=O)O [Benzyl Penicillin, Benzyl penicillin, reference compound] was run?
**A.** Its zone of inhibition at 50 µg/mL is 17 mm.

**Q.** And the zone of inhibition at 50 µg/mL (Bacillus subtilis [2]; Bacillus subtilis, 24 h at 37°, DMF solvent control, read-out: Diameter of zone of inhibition, B. Subtilis)?
**A.** The zone of inhibition at 50 µg/mL was 15 mm.

**Q.** What about the zone of inhibition at 50 µg/mL (Staphylococcus aureus [3]; Staphylococcus aureus, 24 h at 37°, DMF solvent control, read-out: Diameter of zone of inhibition, S. auereus) of the same compound?
**A.** Its zone of inhibition at 50 µg/mL is 25 mm.

**Q.** And the “Diameter of zone of inhibition, C. albicans” value (Candida albicans [4]; [11])?
**A.** The value was “-”.

**Q.** What about the zone of inhibition at 50 µg/mL (Escherichia coli [5]; Escherichia coli, 24 h at 37°, DMF solvent control, read-out: Diameter of zone of inhibition, E. coli) of the same compound?
**A.** Its zone of inhibition at 50 µg/mL is 16 mm.

**Q.** Which results are given for CC(C)[C@@H]1NC(=O)[C@@H]2CCCN2C(=O)[C@H](Cc2ccc(O)cc2)NC(=O)[C@H](Cc2ccc(O)cc2)NC(=O)[C@H](Cc2ccc(O)cc2)NC(=O)CNC(=O)[C@@H]2CCCN2C1=O [Compound, delavayin-C, cyclo(gly-tyr-tyr-tyr-pro-val-pro)] (cyclo(GYYYPVP))?
**A.** activity against P. aeruginosa when compared with standard drug benzyl penicillin (in words) (Psuedomonas aeruginosa [1]): less activity; Diameter of zone of inhibition, P. aeruginosa (Psuedomonas aeruginosa [1]; [11]): 11 mm; activity against B. subtilis when compared with standard drug benzyl penicillin (in words) (Bacillus subtilis [2]): moderate activity; Diameter of zone of inhibition, B. Subtilis (Bacillus subtilis [2]; [11]): 15 mm; activity against S. aureus when compared with standard drug benzyl penicillin (in words) (Staphylococcus aureus [3]): moderate activity; Diameter of zone of inhibition, S. auereus (Staphylococcus aureus [3]; [11]): 21 mm; inhibition of growth against Candida albicans (in words) (Candida albicans [4]): moderate inhibition of growth; Diameter of zone of inhibition, C. albicans (Candida albicans [4]; [11]): 18 mm; activity against E. coli when compared with standard drug benzyl penicillin (in words) (Escherichia coli [5]): less activity; Diameter of zone of inhibition, E. coli (Escherichia coli [5]; [11]): 10 mm; Presence or absence of growth (Psuedomonas aeruginosa [6]; 1.56 μg/ml): +; Presence or absence of growth (Psuedomonas aeruginosa [6]; 3.13 μg/ml): +; Presence or absence of growth (Psuedomonas aeruginosa [6]; 6.25 μg/ml): +; Presence or absence of growth (Psuedomonas aeruginosa [6]; 12.5 μg/ml): +; Presence or absence of growth (Psuedomonas aeruginosa [6]; 25 μg/ml): +; Presence or absence of growth (Psuedomonas aeruginosa [6]; 50 μg/ml): +; Presence or absence of growth (Psuedomonas aeruginosa [6]; 100 μg/ml): –; Presence or absence of growth (Bacillus subtilis [7]; 1.56 μg/ml): +; Presence or absence of growth (Bacillus subtilis [7]; 3.13 μg/ml): +; Presence or absence of growth (Bacillus subtilis [7]; 6.25 μg/ml): +; Presence or absence of growth (Bacillus subtilis [7]; 12.5 μg/ml): +; Presence or absence of growth (Bacillus subtilis [7]; 25 μg/ml): +; Presence or absence of growth (Bacillus subtilis [7]; 50 μg/ml): –; Presence or absence of growth (Bacillus subtilis [7]; 100 μg/ml): –; Presence or absence of growth (Staphylococcus aureus [8]; 1.56 μg/ml): +; Presence or absence of growth (Staphylococcus aureus [8]; 3.13 μg/ml): +; Presence or absence of growth (Staphylococcus aureus [8]; 6.25 μg/ml): +; Presence or absence of growth (Staphylococcus aureus [8]; 12.5 μg/ml): +; Presence or absence of growth (Staphylococcus aureus [8]; 25 μg/ml): +; Presence or absence of growth (Staphylococcus aureus [8]; 50 μg/ml): +; Presence or absence of growth (Candida albicans [9]; 1.56 μg/ml): +; Presence or absence of growth (Candida albicans [9]; 3.13 μg/ml): +; Presence or absence of growth (Candida albicans [9]; 6.25 μg/ml): +; Presence or absence of growth (Candida albicans [9]; 12.5 μg/ml): +; Presence or absence of growth (Candida albicans [9]; 25 μg/ml): +; Presence or absence of growth (Candida albicans [9]; 50 μg/ml): –; Presence or absence of growth (Candida albicans [9]; 100 μg/ml): –; Presence or absence of growth (Escherichia coli [10]; 1.56 μg/ml): +; Presence or absence of growth (Escherichia coli [10]; 3.13 μg/ml): +; Presence or absence of growth (Escherichia coli [10]; 6.25 μg/ml): +; Presence or absence of growth (Escherichia coli [10]; 12.5 μg/ml): +; Presence or absence of growth (Escherichia coli [10]; 25 μg/ml): +; Presence or absence of growth (Escherichia coli [10]; 50 μg/ml): +; Presence or absence of growth (Escherichia coli [10]; 100 μg/ml): –

**Q.** With OC(Cn1cncn1)(Cn1cncn1)c1ccc(F)cc1F [Fluconazole, fluconazole, reference compound] as the compound, how does the “Diameter of zone of inhibition, P. aeruginosa” value (Psuedomonas aeruginosa [1]; [11]) read?
**A.** The value was “-”.

**Q.** And the “Diameter of zone of inhibition, B. Subtilis” value (Bacillus subtilis [2]; [11])?
**A.** The value was “-”.

**Q.** What about the “Diameter of zone of inhibition, S. auereus” value (Staphylococcus aureus [3]; [11]) of the same compound?
**A.** Its value is “-”.

**Q.** What about the zone of inhibition at 50 µg/mL (Candida albicans [4]; Candida albicans, 24 h at 37°, DMF solvent control, read-out: Diameter of zone of inhibition, C. albicans) of the same compound?
**A.** The zone of inhibition at 50 µg/mL was 20 mm.

**Q.** And the “Diameter of zone of inhibition, E. coli” value (Escherichia coli [5]; [11])?
**A.** Its value is “-”.
